Reference: ChEMBL document CHEMBL1201862, “PubChem BioAssay data set” (2004)
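In this assay, cells in 96-well plates receive the compound at five concentrations for 48 hours. Endpoints are linearly interpolated between the surrounding concentrations. GI50 is the concentration that inhibits growth by half.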 Calls of active or inactive are those of the source. No stated cut-off is given here; in the data, active = GI50 up to about 1.1 µM and inactive = higher.

Tests used:
Experiment in all cases: DTP human tumour cell line panel, 48 h
HCT-116 = test system: HCT-116
SF-539 = test system: SF-539
EKVX = test system: EKVX
T47D = test system: T47D
SF-295 = test system: SF-295
OVCAR-4 = test system: OVCAR-4
SK-MEL-28 = test system: SK-MEL-28
OVCAR-5 = test system: OVCAR-5
SN12C = test system: SN12C
CCRF-CEM = test system: CCRF-CEM
HOP-92 = test system: HOP-92
SNB-19 = test system: SNB-19
UO-31 = test system: UO-31
DMS-114 = test system: DMS-114
NCI-H522 = test system: NCI-H522
Hs-578T = test system: Hs-578T
SNB-78 = test system: SNB-78
SR = test system: SR
A549 = test system: A549
XF498 = test system: XF498
HCT-15 = test system: HCT-15
OVCAR-3 = test system: OVCAR-3
LOX IMVI = test system: LOX IMVI
SK-MEL-5 = test system: SK-MEL-5
U-251 = test system: U-251
MOLT-4 = test system: MOLT-4
DLD-1 = test system: DLD-1
K562 = test system: K562
HOP-62 = test system: HOP-62
NCI-H23 = test system: NCI-H23
COLO 205 = test system: COLO 205
MDA-MB-435 = test system: MDA-MB-435
SK-MEL-2 = test system: SK-MEL-2
RXF 393 = test system: RXF 393
CAKI-1 = test system: CAKI-1
HCC 2998 = test system: HCC 2998
Malme-3M = test system: Malme-3M
NCI-H460 = test system: NCI-H460
ACHN = test system: ACHN
SW-620 = test system: SW-620
UACC-257 = test system: UACC-257
UACC-62 = test system: UACC-62
RPMI-8226 = test system: RPMI-8226
HT-29 = test system: HT-29
OVCAR-8 = test system: OVCAR-8
A498 = test system: A498
HL-60 = test system: HL-60
DMS-273 = test system: DMS-273
M19-MEL = test system: M19-MEL
TK-10 = test system: TK-10
NCI-H226 = test system: NCI-H226
BT-549 = test system: BT-549
SNB-75 = test system: SNB-75
DU-145 = test system: DU-145
KM-20L2 = test system: KM-20L2
786-0 = test system: 786-0
IGROV-1 = test system: IGROV-1
KM12 = test system: KM12
LXFL 529 = test system: LXFL 529
M14 = test system: M14
SF-268 = test system: SF-268
HOP-18 = test system: HOP-18
SK-OV-3 = test system: SK-OV-3

## C=C1CC2OC2(C(=O)O[C@H]2CCC3[C@@H]4CCC5=CC(=O)CC[C@]5(C)C4CC[C@@]32C)C1=O (stereo partly drawn)
HCT-116
  GI50: 5.81 µM (inactive)
SF-539
  GI50: 9.33 µM (inactive)
EKVX
  GI50: 25.5 µM (inactive)
T47D
  GI50: 3.3 µM (inactive)
SF-295
  GI50: 19.1 µM (inactive)
OVCAR-4
  GI50: 6.34 µM (inactive)
SK-MEL-28
  GI50: 8.87 µM (inactive)
OVCAR-5
  GI50: 19.6 µM (inactive)
SN12C
  GI50: 6.52 µM (inactive)
CCRF-CEM
  GI50: 0.804 µM (active)
HOP-92
  GI50: 9.75 µM (inactive)
SNB-19
  GI50: 18.7 µM (inactive)
UO-31
  GI50: 8.38 µM (inactive)
DMS-114
  GI50: 5.2 µM (inactive)
NCI-H522
  GI50: 2.47 µM (inactive)
Hs-578T
  GI50: 16.8 µM (inactive)
SNB-78
  GI50: 8.26 µM (inactive)
SR
  GI50: 0.805 µM (active)
A549
  GI50: 21.3 µM (inactive)
XF498
  GI50: 5.19 µM (inactive)
HCT-15
  GI50: 3.68 µM
OVCAR-3
  GI50: 8.51 µM (inactive)
LOX IMVI
  GI50: 7.94 µM (inactive)
SK-MEL-5
  GI50: 11.8 µM (inactive)
U-251
  GI50: 8.97 µM (inactive)
MOLT-4
  GI50: 1.49 µM (inactive)
DLD-1
  GI50: 2.64 µM (inactive)
K562
  GI50: 1.78 µM (inactive)
HOP-62
  GI50: 21.4 µM (inactive)
NCI-H23
  GI50: 9.53 µM (inactive)
COLO 205
  GI50: 4.1 µM (inactive)
MDA-MB-435
  GI50: 12.7 µM (inactive)
SK-MEL-2
  GI50: 6.07 µM (inactive)
RXF 393
  GI50: 4.43 µM (inactive)
CAKI-1
  GI50: 11.9 µM (inactive)
HCC 2998
  GI50: 31.6 µM (inactive)
Malme-3M
  GI50: 6.56 µM (inactive)
NCI-H460
  GI50: 11 µM (inactive)
ACHN
  GI50: 8.09 µM (inactive)
SW-620
  GI50: 3.4 µM (inactive)
UACC-257
  GI50: 8.05 µM (inactive)
UACC-62
  GI50: 14.6 µM (inactive)
RPMI-8226
  GI50: 1.47 µM (inactive)
HT-29
  GI50: 8.34 µM (inactive)
OVCAR-8
  GI50: 7.59 µM (inactive)
A498
  GI50: 13.6 µM (inactive)
HL-60
  GI50: 0.83 µM (active)
DMS-273
  GI50: 4.45 µM (inactive)
M19-MEL
  GI50: 7.57 µM (inactive)
TK-10
  GI50: 6.49 µM (inactive)
NCI-H226
  GI50: 22.9 µM (inactive)
BT-549
  GI50: 15.3 µM (inactive)
SNB-75
  GI50: 16.9 µM (inactive)
DU-145
  GI50: 17.8 µM (inactive)
KM-20L2
  GI50: 7.57 µM (inactive)
786-0
  GI50: 2.04 µM (inactive)
IGROV-1
  GI50: 10.9 µM (inactive)
KM12
  GI50: 12.6 µM (inactive)
LXFL 529
  GI50: 2.18 µM (inactive)
M14
  GI50: 7.23 µM (inactive)
SF-268
  GI50: 8.41 µM (inactive)
HOP-18
  GI50: 5.83 µM (inactive)
SK-OV-3
  GI50: 20 µM (inactive)
